# Residue numbers refer to the chain shown, from its start. Entries after “also recorded” stand apart in the source; their conditions may differ. Like-named read-outs stand apart in the source and are kept apart here.
# Columns and labels:
# [1] = Mouse brain tissue binding; type: in vitro ADME; conditions: for fraction unbound: mouse, brain tissue
# C57BL/6J mice [2] = test: Head twitch response (HTR); type: in vivo, mouse; conditions: s.c., presence or absence of 5-HT1A antagonist WAY-100635
# Description: The head-twitch response evaluation was performed by trained observers who were blinded to both drug and dose. Mice were habituated to the testing room 30 min. The body weight of each mouse was recorded. The HTR was defined as a rapid rotational movement of the head around the longitudinal axis of the animals' body. Mice were administered with vehicle or WAY100,635 (1 mg/kg or 2 mg/kg, sc). Fifteen minutes after the pretreatment injection mice were administered either 4F, 5-MeO-MET (0.1, 0.3, 1 or 3 mg/kg, sc) or 5-MeO-MET (0.3, 1, 3, and 10 mg/kg, sc) and placed in a novel observation cage. An overhead camera (GoPro HERO9 at a 120 Hz, San Mateo, CA, US) recorded their movements. Observers scored HTR from recorded footage for the first 10-min period.
# OCT1 = biological target: T1, OCT1 (Homo sapiens, UniProt O15245); test: OCT1 uptake inhibition; type: cell-based; conditions: compared with 5-HT1A
# T1 construct: expressed in transfected cells; host or cells: Flp-In T-Rex cell line (ThermoFisher), tetracycline-induced
# T1 sequence (O15245 1-554): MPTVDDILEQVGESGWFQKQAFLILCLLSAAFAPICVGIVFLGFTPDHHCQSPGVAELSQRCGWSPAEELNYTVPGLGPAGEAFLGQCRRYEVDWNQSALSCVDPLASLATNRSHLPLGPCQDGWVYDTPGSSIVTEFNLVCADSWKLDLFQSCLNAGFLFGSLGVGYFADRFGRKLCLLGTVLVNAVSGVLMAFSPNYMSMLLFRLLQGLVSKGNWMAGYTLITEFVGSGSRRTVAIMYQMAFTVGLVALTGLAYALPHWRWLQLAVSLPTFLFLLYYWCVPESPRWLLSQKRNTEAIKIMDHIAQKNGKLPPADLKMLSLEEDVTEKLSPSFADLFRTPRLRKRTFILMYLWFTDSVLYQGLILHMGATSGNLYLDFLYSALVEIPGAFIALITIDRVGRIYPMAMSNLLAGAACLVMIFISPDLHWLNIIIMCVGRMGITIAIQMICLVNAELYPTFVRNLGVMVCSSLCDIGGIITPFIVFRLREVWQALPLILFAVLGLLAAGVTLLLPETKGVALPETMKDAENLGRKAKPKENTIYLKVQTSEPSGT
# Description: Inducible cell lines stably expressing OCT1, OCT2, or PMAT were generated using the Flp-In T-Rex cell line (ThermoFisher) according to manufacturer recommendations. Cells were maintained in DMEM supplemented with 10% FBS, 100 μg/ml hygromycin B (GoldBio), and 10 μg/ml blasticidin (GoldBio). To measure uptake inhibition, cells were seeded into poly-L-lysine coated clear-bottom 384-well plates at a density of 25,000 cells per well in DMEM containing 10% FBS and 2 μg/ml of tetracycline (Sigma) to induce transporter expression. […] Cells were incubated with drug for 30 min at 37° C. Fluorescent substrate was then added to the cells. […] Cells were incubated with respective substrates for an hour at 37° C. OCT2 cells were read directly in a Victor NIVO plate reader using 495 nm excitation and 580 emission filter for 0.1 s. OCT1 and PMAT cells were washed in HBSS supplemented with 20 mM HEPES pH 7.4 before reading in a Victor NIVO plate reader using 435 nm excitation and 480 nm emission filter for 0.1 s.
# 5-HT1A N386V = biological target: T2, 5-HT1A N386V (Homo sapiens, UniProt P08908, N386V); test: Gi1 BRET at mutant 5-HT1A N386V; type: cell-based; conditions: Gi1 BRET, 5-HT1A N386V^7.39
# T2 construct: expressed in transfected cells; host or cells: HEK293-T
# T2 sequence (P08908 1-422 N386V): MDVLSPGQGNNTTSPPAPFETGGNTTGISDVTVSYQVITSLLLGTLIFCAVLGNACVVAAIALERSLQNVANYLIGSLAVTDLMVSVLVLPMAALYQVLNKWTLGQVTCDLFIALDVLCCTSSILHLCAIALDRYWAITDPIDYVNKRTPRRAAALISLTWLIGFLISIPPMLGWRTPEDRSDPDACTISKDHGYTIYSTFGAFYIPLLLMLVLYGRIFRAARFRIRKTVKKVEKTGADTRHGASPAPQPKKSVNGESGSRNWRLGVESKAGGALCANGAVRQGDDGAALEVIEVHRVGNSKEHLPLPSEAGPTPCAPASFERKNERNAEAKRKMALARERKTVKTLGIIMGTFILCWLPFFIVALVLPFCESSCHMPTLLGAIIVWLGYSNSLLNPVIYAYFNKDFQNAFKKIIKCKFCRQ
# 5-HT2A = 5-HT2A (Homo sapiens, UniProt P28223)
# Chain of 5-HT2A (P28223 whole entry): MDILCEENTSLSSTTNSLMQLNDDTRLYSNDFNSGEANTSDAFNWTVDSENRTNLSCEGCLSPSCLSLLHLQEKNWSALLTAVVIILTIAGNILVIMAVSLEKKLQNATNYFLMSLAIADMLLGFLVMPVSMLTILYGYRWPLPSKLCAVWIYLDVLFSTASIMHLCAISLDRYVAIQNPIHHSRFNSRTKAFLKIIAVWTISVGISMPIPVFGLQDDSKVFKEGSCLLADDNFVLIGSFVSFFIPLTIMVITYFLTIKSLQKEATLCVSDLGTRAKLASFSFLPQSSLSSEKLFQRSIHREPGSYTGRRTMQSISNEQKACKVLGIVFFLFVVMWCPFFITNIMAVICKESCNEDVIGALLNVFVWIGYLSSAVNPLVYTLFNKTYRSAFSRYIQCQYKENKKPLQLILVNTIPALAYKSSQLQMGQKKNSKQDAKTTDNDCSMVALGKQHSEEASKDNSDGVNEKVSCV
# human 5-HT1A = biological target: T3, human 5-HT1A (Homo sapiens, UniProt P08908); test: 5-HT1A-mediated cAMP reduction assay (GloSensor, HEK293-T); conditions: cAMP, 5-HT1A WT
# T3 sequence (P08908 1-422): T2 sequence (P08908 1-422 N386V) with V386N
# C57BL/6J mice [3] = test: Social interaction test after chronic social defeat stress (CSDS)
structure (smiles),measurement,setting,value
"COc1ccc2[nH]cc(CCN3CCCC3)c2c1F [4-F, 5-MeO-PyrT, 4-Fluoro, 5-methoxypyrrolidinyl-tryptamine]",brain tissue binding,[1],82.5%
same,recovery,[1],88%
same,% Compound remaining at 4 h,[1]; 4 h,96%
same,fraction unbound,[1]; read-out: % Bound Mean (converted),0.175
same,fraction unbound,[1]; read-out: % Unbound,0.175
same,fraction unbound,[1]; read-out: fu,0.175
same,fraction unbound,"[1]; replicate R1, read-out: % Bound R1 (converted)",0.157
same,fraction unbound,"[1]; replicate R2, read-out: % Bound R2 (converted)",0.193
same,"head-twitch response (HTR), measure of 5-HT2A-mediated hallucinogenic activity",C57BL/6J mice [2],no preclinical signs of hallucinogenic effects; also recorded: did not produce notable HTR
same,activity at other neurotransmitter transporters (OCT1),OCT1,substantially lower activity
same,pEC50,5-HT1A N386V,"(8.52,"
same,EC50,5-HT1A N386V; read-out: EC50,3 nM
same,EC50,"5-HT2A; Gq BRET, 5-HT2A WT",300 nM
same,pEC50,"5-HT2A; Gq BRET, 5-HT2A WT","(6.52,"
same,EC50,5-HT2A; read-out: Gq BRET EC50,300 nM
same,EC50,human 5-HT1A,0.03 nM
same,pEC50,human 5-HT1A,10.5
same,number of resilient mice (SI ratio >1),C57BL/6J mice [3]; drug- vs vehicle-treated stressed animals,markedly increases the number of resilient mice
same,general locomotion at the social interaction test,"C57BL/6J mice [3]; mice, one s.c. administration",no effects of the pharmacological intervention on general locomotion; also recorded: no apparent alterations in locomotor activity
same,amelioration of SI deficits under WAY-100635 co-administration,"C57BL/6J mice [3]; stressed mice, co-administered 5-HT1A antagonist WAY-100635",blocked
same,corner time (anxiety-like behavior),"C57BL/6J mice [3]; stressed mice, one s.c. administration",rescued; also recorded: no longer observed
same,social interaction deficit induced by chronic social defeat stress,"C57BL/6J mice [3]; stressed mice, one s.c. administration, test 24 hr post drug",rescued; also recorded: rescuing the social interaction deficit

# — US20260034119A1, “5-METHOXY-N,N-[…][…], THEIR […], AND METHODS FOR TREATMENT OF NEUROLOGICAL, […], AND SUBSTANCE USE DISORDERS” (priority 2023, published 2026)
